Data: patent US20180086817A1, “Preventing, Treating or Arresting Alzheimer's, Stroke, Cardiovascular and other Amyloid Related Diseases” (priority 2016, published 2018)

Legend:
cellular glutathione = details: cited from earlier work
L68Q cystatin C = target: T1, L68Q cystatin C (Homo sapiens, UniProt P01034, L94Q); assay: Preliminary trial of N-acetylcysteine in HCCAA patients expressing L68Q cystatin C, with biopsy; format: in vivo
T1 construct: confirmed by genetic screen to express L68Q cystatin C; from tissue; host or cells: HCCAA patients; biopsy (tissue not given)
T1 sequence (P01034 27-146 L94Q): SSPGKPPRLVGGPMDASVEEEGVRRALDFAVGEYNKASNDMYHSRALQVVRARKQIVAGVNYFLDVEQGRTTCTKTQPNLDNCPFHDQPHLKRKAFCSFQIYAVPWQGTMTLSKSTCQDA
Protocol: For an early test of effectiveness of glutathione supportive therapy in the treatment of HCCAA and similar disease involving plaque formation, human trials are planned using accepted and previously approved therapeutic interventions. Initial trials involve n-acetylcysteine based on its chemistry and historical acceptance in human therapies. Doses ranging from as low as 200 mg/day, but at least in the early trials, at higher levels to emphasize effect have been proposed with initial regulatory approvals in high risk HCCAA patients.
Three persons who had been identified through characteristic HCCAA symptoms confirmed by genetic screen to express L68Q cystatin C agreed to participate in a preliminary trial with a prototype drug to support antioxidant and other effects of GSH. N-acetylcysteine was used as a GSH-support/anti-cystatin-C-polymerization archetypical drug for conceptual proof and support of the hypotheses supporting this invention. […] One patient fully complied with the prescribed protocol. Two patients were only partially compliant. The fully compliant patient presented with a 50% reduction in plaques observed on biopsy.
Treatments are continuing, augmented by confirmatory/advisory biopsies. Biopsy intervals may be approximately weekly, but longer intervals are envisioned as sufficient to monitor effects and dosages and to encourage compliance in testing and treatment maintenance. For example, biopsy intervals may be weekly, biweekly, monthly, bimonthly, quarterly, semi-annual, annual, etc. Biopsy appointments may be used both for treatment/disease monitoring, but also to maintain patient attention and interaction. Medical advisory panels and insurance issues may also be considered in determining the frequency and type(s) of biopsies.

O=C1N[C@H](C(=O)O)CS1 [OTC, L-2-oxothiazolidine-4-carboxolate]
effect on glutathione over time (cellular glutathione; 25 mg/kg OTC in conjunction with 800 mg/day glutathione IM): continued effect
time by which effect wanes in plasma (cellular glutathione; dose of about 22-65 mg/kg, post administration): ≤ 8 h
cellular glutathione (cellular glutathione; dose of about 22-65 mg/kg, shortly after administration): double

CC(=O)N[C@@H](CS)C(=O)O [N-acetylcysteine]
disease course (L68Q cystatin C; all three HCCAA patients (L68Q cystatin C), one fully and two partially compliant): disease arrest
reduction in plaques observed on biopsy (L68Q cystatin C; fully compliant patient): 50%
aggregated protein previously observed (L68Q cystatin C; one of the partially compliant patients): significant reduction
disease course (L68Q cystatin C; remaining non-compliant patient): disease arrest
